The results in this text go back to ChEMBL document CHEMBL1138447, “New Rev-export inhibitor from Alpinia galanga and structure-activity relationship” (Bioorg Med Chem Lett, 2009).

Active and inactive are the calls of the source. No cut-off for these calls is given here.

The test system of the assay is HeLa. In words: Inhibition of hemagglutininin-tagged HIV1 Rev protein nuclear export in human HeLa cells assessed as localization at 5 uM by indirect fluorescent antibody technique. To be noted: Human immunodeficiency virus 1. Format: cell-based.

In the case of `C=C[C@H](OC(C)=O)c1ccc(OC(C)=O)cc1`, the outcome was Active.
